Earlier results as cited in patent publication US20260256858A1, “Amanita Muscaria Mushroom Extracts and Products, and Improved Processes for Producing Extracts of Amanita Muscaria Mushrooms at Kilogram Scale” (priority 2023, published 2026).

Legend:
[1] = after ingestion of Amanita mushrooms
[2] = IV injection, 8 μmol/kg, 150 g rat

| Compound | detection in urine after ingestion [1] | brain regions with the highest muscimol concentration (IV injection of 3H-muscimol, 8 μmol/kg, rat) | amount of the dose injected that crossed to the brain [2] | muscimol concentration in brain [2] | time until blood concentration was below limits of detection (after intravenous injection, rat) [min] | distribution in corneum stratum compared to hypothalamus, hippocampus and cortex (intracerebroventricular injection, 1200 nmol/kg, rat) | tolerability (adverse effects or toxicity) (intravenous injection of muscimol, 8 μmol/kg, rat) |
| --- | --- | --- | --- | --- | --- | --- | --- |
| N[C@H](C(=O)O)c1cc(=O)[nH]o1 [ibotenic acid, (S)-2-amino-2-(3-hydroxyisoxazol-5-yl) acetic acid] | detected within an hour after ingestion | – | – | – | – | – | – |
| NCc1cc(=O)[nH]o1 [muscimol, 5-(aminomethyl)-1,2-oxazol-3 (2H)-one] | detected within an hour after ingestion | the substantia nigra, the colliculi and the hypothalamus | approximately 0.02% | approximately 200 pmol/g tissue | ≤ 180 | approximately 2 times higher | well-tolerated |
